Reference: patent US20220324876A1, “4-SUBSTITUTED PYRANO[3,4,b]PYRAZINE KAPPA AGONISTS FOR TREATING DRUG DEPENDENCY” (The Rockefeller University, priority 2019, published 2022)
Where two headings read alike, the source gives them in different places.

Tests used:
[1] = molecular target: T1, human kappa opioid receptors (Homo sapiens, UniProt P41145); assay: [35S]GTPγS binding, membranes from U2OS cells; type: biochemical; details: for Emax: read-out: GTPγS (% efficacy)
T1 construct: expressed in transfected cells; host or cells: U2OS

[2] = molecular target: kappa opioid receptor (hOPRK1) β-arrestin (Homo sapiens, UniProt P41145); assay: β-arrestin PathHunter assay (U2OS hOPRK1); details: for Arrestin efficacy, %: Table E
male mice [3] = assay: Rotarod incoordination (sedation) in mice; type: in vivo
Description: In the case of rotarod incoordination, kappa agonist effects in this assay reflect kappa-opioid receptor arrestin mediated signaling. This assay is thought to be a sensitive measure of the sedative properties of kappa opioid receptor agonists. Generally, a compound which has reduced efficacy in the coupling of arrestin with the kappa opioid receptor is thought to have a lowered potential for the sedative side effects of kappa opioid receptor ligands Rotarod assays in vivo are employed to confirm this possibility.
Rotarod experiments are conducted with mice using a dedicated rodent rotarod apparatus, with up to five animals tested concurrently (IITC Life Science, Woodland Hills, Calif, USA). Rotarod rotation rate begins at 3 rotations per minute, and ramps to 30 rotations per minute over the course of 300 s, at which time the assay is terminated and animals removed to their home cage. Animals are acclimated to the rotarod on at least two occasions prior to the day of the test. On the day of the test, baseline times for each animal to fall off the rotarod are recorded. Mice are then injected intraperitoneally with vehicle or compound, and rotarod measurements conducted, beginning 0-2 minutes after injection, and then subsequently at select time points thereafter. Animals which fail to remain on the rotarod for at least 150 seconds during baseline testing are removed from the analysis.
(The closure of laboratories during the covid-19 pandemic delayed the carrying out of conditioned place aversion assays and modulation of cocaine self-administration, so that results were not available by the filing date of this application.)

male mice [4] = assay: Serum prolactin release in mice; type: in vivo; details: dose-response experiment

T1 sequence (P41145 whole entry): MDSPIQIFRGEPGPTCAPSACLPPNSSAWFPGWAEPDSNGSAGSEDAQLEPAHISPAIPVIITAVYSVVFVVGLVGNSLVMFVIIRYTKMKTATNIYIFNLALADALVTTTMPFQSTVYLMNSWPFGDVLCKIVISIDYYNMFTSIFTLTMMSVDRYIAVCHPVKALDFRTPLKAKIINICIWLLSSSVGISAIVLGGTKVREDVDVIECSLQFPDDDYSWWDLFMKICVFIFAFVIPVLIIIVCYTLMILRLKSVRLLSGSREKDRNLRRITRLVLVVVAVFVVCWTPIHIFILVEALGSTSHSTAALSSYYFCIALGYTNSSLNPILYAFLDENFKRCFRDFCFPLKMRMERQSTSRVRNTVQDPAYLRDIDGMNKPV
kappa opioid receptor (hOPRK1) β-arrestin, sequence (P41145 whole entry): as above

Row | SMILES | EC50 ([1]; GTPγS EC50 (nM), Table D) | EC50 ([1]; GTPγS potency (nM), Table E) | GTPγS efficacy, % ([1]; Table E) | Emax [1] | EC50 [2] | Arrestin efficacy, % [2] | also measured
1 | CC(C)(O)C(=O)N1CCN(C(=O)Cc2ccc(Cl)c(Cl)c2)[C@H]2[C@H](N3CCCC3)COC[C@@H]21 [Example 5A96B] | 64 nM | 71.4 nM | 123.5% | 113% | 24800 nM | 60.7% | –
2 | CC(C)(O)C(=O)N1CCN(C(=O)Cc2ccc(Cl)c(Cl)c2)[C@H]2[C@H]1COC[C@@H]2N1CCCC1 [Example 5A96A] | 17 nM | 32.8 nM | 77.0% | 64% | 3760 nM | 53.0% | sedative effect in rotarod (male mice [3]; up to 90 mg/kg intraperitoneally): no statistically significant sedative effect
3 | CC(C)(O)CN1CCN(C(=O)Cc2ccc(Cl)c(Cl)c2)[C@H]2[C@H](N3CCCC3)COC[C@@H]21 (single isomer, unassigned) [Example 5A90B] | 5.4 nM | 8.9 nM | 69.3% | 68% | 5250 nM | 46.5% | stimulation of prolactin levels (male mice [4]; 30 mg/kg (p<0.05)): statistically significant stimulation; stimulation of prolactin levels (male mice [4]; 90 mg/kg (p<0.005)): statistically significant stimulation; sedative effect in rotarod (male mice [3]; 10 mg/kg intraperitoneally): not; sedative effect in rotarod (male mice [3]; 30 mg/kg intraperitoneally): not; sedative effect in rotarod (male mice [3]; 90 mg/kg intraperitoneally): substantial sedative effect
4 | CC(C)(O)CN1CCN(C(=O)Cc2ccc(Cl)c(Cl)c2)[C@H]2[C@H]1COC[C@@H]2N1CCCC1 (single isomer, unassigned) [Example 5A90A] | 22 nM | 34.7 nM | 91.0% | 101% | 43200 nM | 78.1% | –
5 | COCCS(=O)(=O)N1CCN(C(=O)Cc2ccc(Cl)c(Cl)c2)[C@H]2[C@H](N3CCCC3)COC[C@@H]21 (single isomer, unassigned) [Example 5A146B] | 115 nM | – | – | 127% | – | – | –
6 | COCCN1CCN(C(=O)Cc2ccc(Cl)c(Cl)c2)[C@H]2[C@H]1COC[C@@H]2N1CCCC1 (single isomer, unassigned) [Example 5A141A] | 37 nM | – | – | 96% | – | – | –
7 | O=C(Cc1ccc(Cl)c(Cl)c1)N1CCN(S(=O)(=O)CCO)[C@@H]2COC[C@H](N3CCCC3)[C@H]21 (single isomer, unassigned) [Example 5A140A] | 20 nM | – | – | 112% | – | – | –
8 | O=C(Cc1ccc(Cl)c(Cl)c1)N1CCN(Cc2cccc(F)c2)[C@@H]2COC[C@H](N3CCCC3)[C@H]21 (single isomer, unassigned) [Example 5A145A] | 5 nM | – | – | 95% | – | – | –
9 | O=C(Cc1ccc(Cl)c(Cl)c1)N1CCN(C(=O)CO)[C@H]2COC[C@@H](N3CCCC3)[C@@H]21 (single isomer, unassigned) [Example 5A95B] | 202 nM | – | – | 78% | – | – | –
10 | O=C(Cc1ccc(Cl)c(Cl)c1)N1CCN(CC2CCS(=O)(=O)CC2)[C@@H]2COC[C@H](N3CCCC3)[C@H]21 (racemic) [rac-5A85] | – | – | – | 100% | – | – | EC50 [1]: 320 nM
